Test results as given in patent publication US20090022806A1, “Nanoparticle and polymer formulations for thyroid hormone analogs, antagonists and formulations and uses thereof” (priority 2006, published 2009).
Values joined by “and” are separate entries in the source; they are usually repeats but may differ in a detail not shown here. Equal values may be shown once. “Also recorded” adds a separate entry of the source.

Assays:
[1] = system: citrated human whole blood; experiment: Thromboelastography (TEG) clot dynamics; details: 25 ng TF + 2.25 mM Ca^+2 or 10 mM Ca^+2; n = 4
Method: Thromboelastography (TEG) has been used in various hospital settings since its development by Hartert in 1948. The principle of TEG is based on the measurement of the physical viscoelastic characteristics of blood clot. Clot formation was monitored at 37° C. in an oscillating plastic cylindrical cuvette (“cup”) and a coaxially suspended stationary piston (“pin”) with a 1 mm clearance between the surfaces, using a computerized Thrombelastograph (TEG Model 3000, Haemoscope, Skokie, Ill.). The cup oscillates in either direction every 4.5 seconds, with a 1 second mid-cycle stationary period; resulting in a frequency of 0.1 Hz and a maximal shear rate of 0.1 per second. The pin is suspended by a torsion wire that acts as a torque transducer. […] The torque experienced by the pin (relative to the cup's oscillation) is plotted as a function of time (FIG. 58).
TEG assesses coagulation by measuring various parameters such as the time latency for the initial initiation of the clot (R), the time to initiation of a fixed clot firmness (k) of about 20 mm amplitude, the kinetic of clot development as measured by the angle (α), and the maximum amplitude of the clot (MA). The parameter A measures the width of the tracing at any point of the MA. Amplitude A in mm is a function of clot strength or elasticity. The amplitude on the TEG tracing is a measure of the rigidity of the clot; the peak strength or the shear elastic modulus attained by the clot, G, is a function of clot rigidity and can be calculated from the maximal amplitude (MA) of the TEG tracing.
The following parameters were measured from the TEG tracing: • R, the reaction time (gelation time) represents the latent period before the establishment of a 3-dimensional fibrin gel network (with measurable rigidity of about 2 mm amplitude). • Maximum Amplitude (MA, in mm), is the peak rigidity manifested by the clot. • Shear elastic modulus or clot strength (G, dynes/cm^2) is defined by:
Blood was drawn from consenting volunteers under a protocol approved by the Human Investigations Committee of William Beaumont Hospital. Using the two syringe method, samples were drawn through a 21 gauge butterfly needle and the initial 3 ml blood was discarded.

[2] = system: chick chorioallantoic membrane (CAM); experiment: Chick chorioallantoic membrane (CAM) assay of angiogenesis; assay type: in vivo; details: for effect on angiogenesis produced by T4: PTU applied to filter disks (1 mmol/L)
Method: Chorioallantoic membrane (CAM) Model of Angiogenesis: In vivo Neovascularization was examined by methods described previously. 9-12 Ten-day-old chick embryos were purchased from SPAFAS (Preston, Conn.) and incubated at 37° C. with 55% relative humidity. A hypodermic needle was used to make a small hole in the shell concealing the air sac, and a second hole was made on the broad side of the egg, directly over an avascular portion of the embryonic membrane that was identified by candling. A false air sac was created beneath the second hole by the application of negative pressure at the first hole, causing the CAM to separate from the shell. A window approximately 1.0 cm 2 was cut in the shell over the dropped CAM with a small-crafts grinding wheel (Dremel, division of Emerson Electric Co.), allowing direct access to the underlying CAM. FGF2 (1 μg/mL) was used as a standard proangiogenic agent to induce new blood vessel branches on the CAM of 10-day-old embryos. Sterile disks of No. 1 filter paper (Whatman International) were pretreated with 3 mg/mL cortisone acetate and 1 mmol/L PTU and air dried under sterile conditions. Thyroid hormone, hormone analogues, FGF2 or control solvents, and inhibitors were then applied to the disks and the disks allowed to dry. The disks were then suspended in PBS and placed on growing CAMs. […] At 24 hours, the MAPK cascade inhibitor PD 98059 was also added to CAMs topically by means of the filter disks.
After incubation at 37° C. with 55% relative humidity for 3 days, the CAM tissue directly beneath each filter disk was resected from control and treated CAM samples. Tissues were washed 3× with PBS, placed in 35-mm Petri dishes (Nalge Nunc), and examined under an SV6 stereomicroscope (Zeiss) at ×50 magnification. Digital images of CAM sections exposed to filters were collected using a 3-charge-coupled device color video camera system (Toshiba) and analyzed with Image-Pro software (Media Cybernetics). The number of vessel branch points contained in a circular region equal to the area of each filter disk were counted. One image was counted in each CAM preparation, and findings from 8 to 10 CAM preparations were analyzed for each treatment condition (thyroid hormone or analogues, FGF2, FGF2 antibody, PD 98059). In addition, each experiment was performed 3 times. The resulting angiogenesis index is the mean±SEM of new branch points in each set of samples.
Ten-day-old chick embryos were purchased £tom SPAFAS (Preston, Conn.) and were incubated at 37° C. with 55% relative humidity. A hypodermic needle was used to make a small hole in the blunt end of the egg and a second hole was made on the broad side of the egg, directly over an avascular portion of the embryonic membrane. Mild suction was applied to the first hole to displace the air sac and drop the CAM away from the shell. Using a Dremel model craft drill (Dremel, Racine, Wis.), a approx. 1.0 cm^2 window was cut in the shell over the false air sac, allowing access to the CAM. Sterile disks of No. 1 filter paper (Whatman, Clifton, N.J.) were pretreated with 3 mg/ml cortisone acetate and 1 mMm propylthiouracil and air dried under sterile conditions. […] The disks were then suspended in PBS and placed on growing CAMS. After incubation for 3 days, the CAM beneath the filter disk was resected and rinsed with PBS. Each membrane was placed in a 35 mm Petri dish and examined under an SV6 stereo-microscope at 50× magnification. Digital images were captured and analyzed with Image-Pro software (Mediacybemetics). The number of vessel branch points contained in a circular region equal to the filter disk were counted. One image from each of 8-10 CAM preparations for each treatment condition was counted, and in addition each experiment was performed 3 times.
Ten-day-old chick embryos were purchased from SPAFAS (Preston, Conn.) and were incubated at 37° C. with 55% relative humidity. Chick CAM assays were performed as previously described.

[3] = system: phosphorylated ERK1/2 in ECV304 endothelial cells; experiment: MAPK (ERK1/2) activation in ECV304 cells, nuclear pERK1/2 immunoblot; assay type: cell-based; details: PD 98059 30 μmol/L or CGP41251 100 nmol/L for 30 minutes before 10^−7 M T4
Method: ECV304 endothelial cells were cultured in M199 medium with 0.25% hormone-depleted serum 13 for 2 days. […] Nuclear fractions were pre-pared from all samples by our method reported previously, the proteins separated by polyacrylamide gel electrophoresis, and transferred to membranes for immunoblotting with antibody to phosphorylated ERK 1/2.

[4] = system: Human dermal micro-vascular endothelial cells (HDMEC); experiment: Three-dimensional human micro-vascular endothelial sprouting assay; assay type: cell-based
Method: In Vitro Three-Dimensional Sprout Angiogenesis of Human Dermal Micro-Vascular Endothelial Cells (HDMEC) Cultured on Micro-Carrier Beads Coated with Fibrin: Confluent HDMEC (passages 5-10) were mixed with gelatin-coated Cytodex-3 beads with a ratio of 40 cells per bead. Cells and beads (150-200 beads per well for 24-well plate) were suspended with 5 ml EBM+15% normal human serum, mixed gently every hour for first 4 hours, then left to culture in a CO2 incubator overnight. The next day, 10 ml of fresh EBM+5% HS were added, and the mixture was cultured for another 3 hours. Before experiments, the culture of EC-beads was checked; then 500 ul of PBS was added to a well of 24-well plate, and 100 ul of the EC-bead culture solution was added to the PBS. The number of beads was counted, and the concentration of EC/beads was calculated.
A fibrinogen solution (1 mg/ml) in EBM medium with or without angiogenesis factors or testing factors was prepared. For positive control, 50 ng/ml VEGF+25 ng/ml FGF2 was used. EC-beads were washed with EBM medium twice, and EC-beads were added to fibrinogen solution. The experiment was done in triplicate for each condition. The EC-beads were mixed gently in fibrinogen solution, and 2.5 ul human thrombin (0.05 U/ul) was added in 1 ml fibrinogen solution; 300 ul was immediately transferred to each well of a 24-well plate. The fibrinogen solution polymerizes in 5-10 minutes; after 20 minutes, we added EBM+20% normal human serum+10 ug/ml aprotinin. The plate was incubated in a CO2 incubator. It takes about 24-48 hours for HDMEC to invade fibrin gel and form tubes.
A micro-carrier in vitro angiogenesis assay previously designed to investigate bovine pulmonary artery endothelial cell angiogenic behavior in bovine fibrin gels [Nehls and Drenckhahn, 1995a, b] was modified for the study of human microvascular endothelial cell angiogenesis in three-dimensional ECM environments (FIGS. 1 and 2). Briefly, human fibrinogen, isolated as previously described [Feng et al, 1999], was dissolved in M199 medium at a concentration of 1 mg/ml (pH 7.4) and sterilized by filtering through a 0.22 micron filter. An isotonic 1.5 mg/ml collagen solution was prepared by mixing sterile Vitrogen 100 in 5×M199 medium and distilled water. The pH was adjusted to 7.4 by 1N NaOH. In certain experiments, growth factors and ECM proteins (such as VEGF, bFGF, PDGF-BB, serum, gelatin, and fibronectin) were added to the fibrinogen or collagen solutions. About 500 EC-beads were then added to the 1 mg/ml fibrinogen or 1.5 mg/ml collagen solutions. Subsequently, EC-beads-collagen or EC-beads-fibrinogen suspension (500 EC-beads/ml) was plated onto 24-well plates at 300 ul/well. EC-bead-collagen cultures were incubated at 37° C. to form gel. The gelling of EC-bead-fibrin cultures occurred in less than 5 minutes at room temperature after the addition of thrombin to a final concentration of 0.5 U/ml. After gelation, 1 ml of fresh assay medium (EBM supplemented with 20% normal human serum for HDMEC or EBM supplemented with 10% fetal bovine serum was added to each well. The angiogenic response was monitored visually and recorded by video image capture. Specifically, capillary sprout formation was observed and recorded with a Nikon Diaphot-TMD inverted microscope (Nikon Inc.; Melville, N.Y.), equipped with an incubator housing with a Nikon NP-2 thermostat and Sheldon #2004 carbon dioxide flow mixer. The microscope was directly interfaced to a video system consisting of a Dage-MTI CCD-72S video camera and Sony 12″ PVM-122 video monitor linked to a Macintosh G3 computer. The images were captured at various magnifications using Adobe Photoshop. The effect of angiogenic factors on sprout angiogenesis was quantified visually by determining the number and percent of EC-beads with capillary sprouts. One hundred beads (five to six random low power fields) in each of triplicate wells were counted for each experimental condition. All experiments were repeated at least three times. […]

HMVEC-d cells = experiment: Microarray analysis (Affymetrix Human U133 Plus 2.0) of HMVEC-d cells; assay type: cell-based
Method: Microarray Analysis Ten micrograms of total RNA from HMVEC-d cells was amplified and biotin-labeled according to GeneChip Expression Analysis Technical Manual (Affymetrix, Santa Clara, Calif.). Fragmented cRNA was hybridized with human gene chip U133 PLUS 2 (Affymetrix); chips were washed and stained with streptavidin R-phycoerythrin (Molecular Probes, Eugene, Oreg.). The chips were scanned and the data were analyzed with Microarray Suite and Data Mining Tool (Affymetrix).
To further identify possible mechanisms of tetrac inhibition of VEGF-stimulated angiogenesis, microarray analysis was performed using the Human U133 Plus 2.0 array from Affymetrix. HDMEC cells were incubated with VEGF at 50 ng/ml for 24 hours with and without Tetrac (3 uM). […] As shown in FIGS. 49A-C, Angiopoietin-like 1 (ANGPTL-1, probe set ID # 231773) expression was increased 5.9 fold following VEGF treatment.

[5] = hormone 0.1 uM alone, pretreated FGF2 1.25 ng/ml + VEGF […], day 3
[6] = VEGF 50 ng/ml, 24 hours, vs untreated

Compound: [Ca+2].[Cl-].[Cl-] [Ca^+2, Calcium Chloride]
- K [1]: 7.0 ± 0.7 min
- MA (mm) [1]: 56.5 ± 2.2 mm
- r [1]: 14.5 ± 2.5 min
- α (angle) [1]: 47.3 ± 2.7 angle

Compound: COc1cccc(-c2cc(=O)c3ccccc3o2)c1N [PD 98059]
- inhibition of angiogenesis induced by FGF2 (1 μg/mL) ([2]; PD 98059): effectively blocked; also recorded: also inhibited
- inhibition of angiogenesis stimulated by T4 (0.1 μmol/L) and T3 (1 nmol/L) together ([2]; PD 98059 3 μmol/L): completely blocked; also recorded: fully inhibited
- block of the pro-angiogenesis effect of T4 or FGF2 ([2]; PD 98059 at 0.8-8 μg): totally blocked
- inhibition of T4-induced ERK1/2 activation [3]: inhibited; also recorded: blocked by both inhibitors
- inhibition of the pro-angiogenesis action of T3, T4 or T4-agarose ([4]; tetrac 0.1 μM, PD 98059, XT199): significantly (P<0.01) blocked

Compound: CCCc1cc(=O)[nH]c(=S)[nH]1 [PTU, 6-N-propyl-2-thiouracil]
- effect on angiogenesis produced by T4 [2]: no inhibitory effect
- effect on angiogenesis produced by T4 ([2]; listed as Propylthiouracil): has no effect

Compound: N[C@@H](Cc1cc(I)c(Oc2ccc(O)c(I)c2)c(I)c1)C(=O)O [T3, 3,5,3′-triiodo-L-thyronine]
- stimulation of angiogenesis ([4]; 0.01-0.1 μM): significant (P<0.01) stimulation of angiogenesis
- Mean Tube Vessel Length (mm) ± SD ([4]; FGF2 25 ng + VEGF 50 ng, T3 20 ng, T4 23 ng, T4-agarose 23 ng, pre-treated with FGF2 1.25 ng/ml + VEGF […]): 1.88 ± 0.21 mm
- Mean number of Migrated cells ± SD [4, 5]: 188 ± 15
- Mean vessel Length (mm) ± SD [4, 5]: 0.91 ± 0.04 mm

Compound: O=C(O)Cc1cc(I)c(Oc2ccc(O)c(I)c2)c(I)c1 [TRIAC, triiodothyroacetic acid]
- block of the pro-angiogenic effect of T4 or T4-agarose ([2]; CAM model): 100%

Compound: FGF2: human recombinant FGF2, standard proangiogenic agent
- fold increase in angiogenesis index ([2]; 1 μg of FGF2): 2-3 fold
- fold increase in blood vessel branch formation ([2]; FGF2 1 μg/ml on filter disk, vs PBS): 2.2 fold and 2.4 fold
- fold increase in angiogenesis ([2]; FIG. 4 experiment with FGF2 antibody, concentration not given, 3 experiments): 2 fold

Compound: VEGF
- ANGPTL-3 expression (HMVEC-d cells; VEGF 50 ng/ml, 24 hours): unaffected
- ANGPTL-1 expression, fold increase (HMVEC-d cells; [6]): 5.9 fold
- ANGPTL-2 expression, fold increase (HMVEC-d cells; [6]): 1.6 fold
- MMP-15 expression, fold increase (HMVEC-d cells; VEGF treatment): 5.1 fold
- MMP-19 expression, fold increase (HMVEC-d cells; VEGF treatment): 2.9 fold
- MMP-24 expression (HMVEC-d cells; VEGF treatment): slightly decreased
